Data reported in patent US20150105252A1, “SUBSTITUTED PYRAZOLES AS HERBICIDES” (E I DU PONT DE NEMOURS AND COMPANY, priority 2013, published 2015).

How the values were obtained:
foxtail, green [1] = experiment: Test C postemergence; type: in vivo, Setaria viridis; conditions: for Foxtail, Green plant response rating: scale 0 to 100
From the text: (§1) Seeds of plant species selected from blackgrass (Alopecurus myosuroides), ryegrass, Italian (Italian ryegrass, Lolium multiflorum), wheat (winter wheat, Triticum aestivum), galium (catchweed bedstraw, Galium aparine), corn (Zea mays), crabgrass, large (large crabgrass, Digitaria sanguinalis), foxtail, giant (giant foxtail, Setaria faberii), johnsongrass (Sorghum halepense), lambsquarters (Chenopodium album), morningglory (Ipomoea coccinea), nutsedge, yellow (yellow nutsedge, Cyperus esculentus), pigweed (redroot pigweed, Amaranthus retroflexus), ragweed (common ragweed, Ambrosia elation), soybean (Glycine max), barnyardgrass (Echinochloa crus-galli), oilseed rape (Brassica napus), waterhemp (common waterhemp, Amaranthus rudis), oat, wild (wild oat, Avena fatua), kochia (Kochia scoparia), Surinam grass (Brachiaria decumbens), foxtail, green (green foxtail, Setaria viridis), goosegrass (Eleusine indica), bromegrass, downy (downy bromegrass, Bromus tectorum), nightshade (eastern black nightshade, Solanum ptycanthum), cocklebur (common cocklebur, Xanthium strumarium), cupgrass, woolly (woolly cupgrass, Eriochloa villosa), bermudagrass (Cynodon dactylon), sunflower, (common oilseed sunflower, Helianthus annuus), Russian thistle (Salsola kali), and velvetleaf (Abutilon theophrasti) were planted into a blend of loam soil and sand and treated preemergence with test chemicals formulated in a non-phytotoxic solvent mixture which included a surfactant.
(§2) At the same time, plants selected from these crop and weed species and also chickweed (common chickweed, Stellaria media), canarygrass (littleseed canarygrass, Phalaris minor), and deadnettle (henbit deadnettle, Lamium amplexicaule), were planted in pots containing Redi-Earth® planting medium (Scotts Company, 14111 Scottslawn Road, Marysville, Ohio 43041) comprising spaghnum peat moss, vermiculite, wetting agent and starter nutrients and treated with postemergence applications of test chemicals formulated in the same manner. Plants ranged in height from 2 to 18 cm (1- to 4-leaf stage) for postemergence treatments. Treated plants and controls were maintained in a greenhouse for 13 to 15 days, after which time all species were compared to controls and visually evaluated. Plant response ratings, summarized in Table C, are based on a scale of 0 to 100 where 0 is no effect and 100 is complete control. A dash (-) response means no test result.

bermudagrass = experiment: Test C preemergence; type: in vivo, Cynodon dactylon; conditions: for Plant response rating (scale of 0 to 100), Bermudagrass: Preemergence, 250 g ai/ha; for Bermudagrass plant response rating / Plant response rating, Bermudagrass: preemergence; for Plant response rating, Bermudagrass: 62 g ai/ha, scale 0 to 100, 0 = no effect, 100 = complete control
From the text: as §1, §2

foxtail, green [2] = experiment: Test C preemergence; type: in vivo, Setaria viridis; conditions: for Plant response rating (scale of 0 to 100), Foxtail, Green: Preemergence, 250 g ai/ha; for Foxtail, Green plant response rating / Plant response rating, Foxtail, Green: preemergence; for Plant response rating, Foxtail, Green: 62 g ai/ha, scale 0 to 100, 0 = no effect, 100 = complete control
From the text: as §1, §2

deadnettle = experiment: Test C postemergence; type: in vivo, Lamium amplexicaule; conditions: for Deadnettle plant response rating: scale 0 to 100
From the text: as §1, §2

cupgrass, woolly = experiment: Test C preemergence; type: in vivo, Eriochloa villosa; conditions: for Plant response rating (scale of 0 to 100), Cupgrass, Woolly: Preemergence, 250 g ai/ha; for Cupgrass, Woolly plant response rating / Plant response rating, Cupgrass, Woolly: preemergence; for Plant response rating, Cupgrass, Woolly: 62 g ai/ha, scale 0 to 100, 0 = no effect, 100 = complete control
From the text: as §1, §2

common ragweed = experiment: Test F preemergence; type: in vivo, Ambrosia elation
From the text: (§3) Seeds of plant species selected from corn (Zea mays), soybean (Glycine max), velvetleaf (Abutilon theophrasti), lambsquarters (Chenopodium album), wild poinsettia (Euphorbia heterophylla), pigweed, palmer (palmer pigweed, Amaranthus palmeri), common waterhemp (Amaranthus rudis), surinam grass (Brachiaria decumbens), large crabgrass (Digitaria sanguinalis), crabgrass, Brazil (Brazilian crabgrass, Digitaria horizontalis), fall panicum (Panicum dichotomiflorum), giant foxtail (Setaria faberii), green foxtail (Setaria viridis), goosegrass (Eleusine indica), johnsongrass (Sorghum halepense), common ragweed (Ambrosia elation), barnyardgrass (Echinochloa crus-galli), southern sandbur (Cenchrus echinatus), arrowleaf sida (Sida rhombifolia), Italian ryegrass (Lolium multiflorum), dayflower, VA (Virginia (VA) dayflower, Commelina virginica), field bindweed (Convolvulus arvensis), cocklebur (common cocklebur, Xanthium strumarium), morningglory (Ipomoea coccinea), nightshade (eastern black nightshade, Solanum ptycanthum), kochia (Kochia scoparia), yellow nutsedge (Cyperus esculentus), and hairy beggarticks (Bidens pilosa), were planted into a silt loam soil and treated preemergence with test chemicals formulated in a non-phytotoxic solvent mixture which included a surfactant.
(§4) At the same time, plants from these crop and weed species and also horseweed (Canada horseweed, Conyza canadensis), smartweed (ladysthumb smartweed, Polygonum persicaria), waterhemp_RES1, (ALS & Triazine resistant common waterhemp, Amaranthus rudis), and waterhemp_RES2, (ALS & HPPD resistant common waterhemp, Amaranthus rudis) were treated with postemergence applications of test chemicals formulated in the same manner. Plants ranged in height from 2 to 18 cm for postemergence treatments (1- to 4-leaf stage). Treated plants and controls were maintained in a greenhouse for 14 to 21 days, after which time all species were compared to controls and visually evaluated. Plant response ratings, summarized in Table F, are based on a scale of 0 to 100 where 0 is no effect and 100 is complete control. A dash (-) response means no test result.

kochia = experiment: Test F preemergence; type: in vivo, Kochia scoparia
From the text: as §3, §4

arrowleaf sida = experiment: Test F preemergence; type: in vivo, Sida rhombifolia
From the text: as §3, §4

[3] = postemergence, 250 g ai/ha, scale 0 to 100 (0 no effect, 100 complete control)
[4] = postemergence, 62 g ai/ha, scale 0 to 100, 0 no effect, 100 complete control
[5] = postemergence, 125 g ai/ha, scale 0 to 100, 0 no effect, 100 complete control
[6] = 31 g ai/ha, scale 0 to 100 (0 no effect, 100 complete control), 13 to 15 days
[7] = 125 g ai/ha, scale 0 to 100, 0 is no effect, 100 is complete control
[8] = Preemergence, 31 g ai/ha, scale 0 to 100
[9] = Preemergence, 62 g ai/ha, scale 0 to 100
[10] = Preemergence, 125 g ai/ha, scale 0 to 100
[11] = preemergence, 8 g ai/ha, scale 0 to 100, 100 is complete control
[12] = preemergence, 16 g ai/ha, scale 0 to 100, 100 is complete control
[13] = Preemergence, 16 g ai/ha, scale 0 to 100
[14] = Preemergence, 250 g ai/ha, scale 0 to 100

CCc1cc(C(=O)NCC(F)(F)F)nn1Cc1cccc(OC(F)(F)F)c1 [Compound 20]
Foxtail, Green plant response rating (foxtail, green [1]; Postemergence, 31 g ai/ha): 20
Plant response rating, Foxtail, Green (foxtail, green [1]; [3]): 60
Plant response rating, Foxtail, Green (foxtail, green [1]; [4]): 30
Plant response rating, Foxtail, Green (foxtail, green [1]; [5]): 55

CCCNC(=O)c1cc(CC)n(Cc2cccc(OC(F)(F)F)c2)n1 [Compound 27]
Foxtail, Green plant response rating (foxtail, green [1]; Postemergence, 31 g ai/ha): 25
Plant response rating, Foxtail, Green (foxtail, green [1]; [3]): 50
Plant response rating, Foxtail, Green (foxtail, green [1]; [4]): 30
Plant response rating, Foxtail, Green (foxtail, green [1]; [5]): 30

CCc1cc(C(=O)NOC(C)C)nn1Cc1cccc(OC(F)(F)F)c1 [Compound 70]
Plant response rating (scale of 0 to 100), Bermudagrass (bermudagrass): 100
Bermudagrass plant response rating (bermudagrass; [6]): 98
Plant response rating, Bermudagrass (bermudagrass; 13 to 15 days): 98
Bermudagrass plant response rating (bermudagrass; [7]): 100
Plant response rating, Foxtail, Green (foxtail, green [1]; [3]): 80
Plant response rating, Foxtail, Green (foxtail, green [1]; [4]): 5
Plant response rating, Foxtail, Green (foxtail, green [1]; [5]): 80
Plant response rating (scale of 0 to 100), Foxtail, Green (foxtail, green [2]): 98
Foxtail, Green plant response rating (foxtail, green [2]; [6]): 15
Plant response rating, Foxtail, Green (foxtail, green [2]; 13 to 15 days): 95
Foxtail, Green plant response rating (foxtail, green [2]; [7]): 95
Deadnettle plant response rating (deadnettle; Postemergence, 31 g ai/ha): 25
Plant response rating, Deadnettle (deadnettle; [3]): 90
Plant response rating, Deadnettle (deadnettle; [4]): 70
Plant response rating, Deadnettle (deadnettle; [5]): 70
Plant response rating (scale of 0 to 100), Cupgrass, Woolly (cupgrass, woolly): 90
Cupgrass, Woolly plant response rating (cupgrass, woolly; [6]): 40
Plant response rating, Cupgrass, Woolly (cupgrass, woolly; 13 to 15 days): 65
Cupgrass, Woolly plant response rating (cupgrass, woolly; [7]): 85

CCONC(=O)c1cc(CC)n(Cc2cccc(OC(F)(F)F)c2)n1 [Compound 72]
Plant response rating (scale of 0 to 100), Bermudagrass (bermudagrass): 100
Bermudagrass plant response rating (bermudagrass; [6]): 85
Plant response rating, Bermudagrass (bermudagrass; 13 to 15 days): 98
Bermudagrass plant response rating (bermudagrass; [7]): 98
Foxtail, Green plant response rating (foxtail, green [1]; Postemergence, 31 g ai/ha): 20
Foxtail, Green plant response rating (foxtail, green [1]; postemergence, 62 g ai/ha): 40
Plant response rating, Foxtail, Green (foxtail, green [1]; [3]): 40
Plant response rating, Foxtail, Green (foxtail, green [1]; [5]): 40
Plant response rating (scale of 0 to 100), Foxtail, Green (foxtail, green [2]): 98
Foxtail, Green plant response rating (foxtail, green [2]; [6]): 30
Plant response rating, Foxtail, Green (foxtail, green [2]; 13 to 15 days): 85
Foxtail, Green plant response rating (foxtail, green [2]; [7]): 90
Deadnettle plant response rating (deadnettle; Postemergence, 31 g ai/ha): 40
Deadnettle plant response rating (deadnettle; postemergence, 62 g ai/ha): 40
Plant response rating, Deadnettle (deadnettle; [3]): 70
Plant response rating, Deadnettle (deadnettle; [5]): 40
Plant response rating (scale of 0 to 100), Cupgrass, Woolly (cupgrass, woolly): 65
Cupgrass, Woolly plant response rating (cupgrass, woolly; [6]): 10
Plant response rating, Cupgrass, Woolly (cupgrass, woolly; 13 to 15 days): 45
Cupgrass, Woolly plant response rating (cupgrass, woolly; [7]): 45

Cc1cc(C(=O)NCC(F)(F)F)nn1Cc1ccnc(C(F)(F)F)c1 [Compound 74]
Plant response rating (scale of 0 to 100), Bermudagrass (bermudagrass): 98
Bermudagrass plant response rating (bermudagrass; [6]): 50
Plant response rating, Bermudagrass (bermudagrass; 13 to 15 days): 90
Bermudagrass plant response rating (bermudagrass; [7]): 98
Foxtail, Green plant response rating (foxtail, green [1]; Postemergence, 31 g ai/ha): 0
Foxtail, Green plant response rating (foxtail, green [1]; postemergence, 62 g ai/ha): 0
Plant response rating, Foxtail, Green (foxtail, green [1]; [3]): 5
Plant response rating, Foxtail, Green (foxtail, green [1]; [5]): 0
Plant response rating (scale of 0 to 100), Foxtail, Green (foxtail, green [2]): 95
Foxtail, Green plant response rating (foxtail, green [2]; [6]): 85
Plant response rating, Foxtail, Green (foxtail, green [2]; 13 to 15 days): 95
Foxtail, Green plant response rating (foxtail, green [2]; [7]): 95
Deadnettle plant response rating (deadnettle; Postemergence, 31 g ai/ha): 10
Deadnettle plant response rating (deadnettle; postemergence, 62 g ai/ha): 60
Plant response rating, Deadnettle (deadnettle; [3]): 80
Plant response rating, Deadnettle (deadnettle; [5]): 70
Plant response rating (scale of 0 to 100), Cupgrass, Woolly (cupgrass, woolly): 98
Cupgrass, Woolly plant response rating (cupgrass, woolly; [6]): 65
Cupgrass, Woolly plant response rating (cupgrass, woolly; [7]): 98

CCc1cc(-c2ccc(C(F)(F)F)cc2)nn1Cc1ccnc(C(F)(F)F)c1 [Compound 110]
Plant response rating, Common Ragweed (common ragweed; [8]): 25
Plant response rating, Common Ragweed (common ragweed; [9]): 80
Plant response rating, Common Ragweed (common ragweed; [10]): 90
Plant response rating, Common Ragweed (common ragweed; [11]): 0
Plant response rating, Common Ragweed (common ragweed; [12]): 0
Plant response rating, Kochia (kochia; [8]): 70
Plant response rating, Kochia (kochia; [9]): 80
Plant response rating, Kochia (kochia; [10]): 90
Plant response rating, Kochia (kochia; [11]): 20
Plant response rating, Kochia (kochia; [12]): 25
Plant response rating, Arrowleaf Sida (arrowleaf sida; [8]): 65
Plant response rating, Arrowleaf Sida (arrowleaf sida; [9]): 80
Plant response rating, Arrowleaf Sida (arrowleaf sida; [10]): 90
Plant response rating, Arrowleaf Sida (arrowleaf sida; [11]): 35
Plant response rating, Arrowleaf Sida (arrowleaf sida; [12]): 65

CCCc1cc(C(=O)NC(C)C)nn1Cc1cc(C(F)(F)F)nn1C [Compound 201]
Plant response rating, Common Ragweed (common ragweed; [13]): 0
Plant response rating, Common Ragweed (common ragweed; [9]): 0
Plant response rating, Common Ragweed (common ragweed; [10]): 35
Plant response rating, Common Ragweed (common ragweed; [14]): 65
Plant response rating, Common Ragweed (common ragweed; [12]): 0
Plant response rating, Kochia (kochia; [9]): 90
Plant response rating, Kochia (kochia; [10]): 100
Plant response rating, Kochia (kochia; [14]): 100
Plant response rating, Kochia (kochia; [12]): 0
Plant response rating, Arrowleaf Sida (arrowleaf sida; [13]): 0
Plant response rating, Arrowleaf Sida (arrowleaf sida; [9]): 0
Plant response rating, Arrowleaf Sida (arrowleaf sida; [10]): 0
Plant response rating, Arrowleaf Sida (arrowleaf sida; [14]): 75
Plant response rating, Arrowleaf Sida (arrowleaf sida; [12]): 0

CCc1cc(C(=O)NCC(F)(F)F)nn1Cc1ccnc(Br)c1 [Compound 224]
Plant response rating, Common Ragweed (common ragweed; [9]): 0
Plant response rating, Common Ragweed (common ragweed; [10]): 0
Plant response rating, Common Ragweed (common ragweed; [14]): 60
Plant response rating, Kochia (kochia; [9]): 90
Plant response rating, Kochia (kochia; [10]): 100
Plant response rating, Kochia (kochia; [14]): 100
Plant response rating, Arrowleaf Sida (arrowleaf sida; [9]): 35
Plant response rating, Arrowleaf Sida (arrowleaf sida; [10]): 30
Plant response rating, Arrowleaf Sida (arrowleaf sida; [14]): 35
